What was measured:
Format in all cases: cell-based
[1] = biological target: T1, NALCN (Rattus norvegicus, UniProt Q6Q760); experiment: Patch-clamp of HEK293T cells transfected with M3R and NALCN, CCh-induced inward current; settings: for inhibitory effect on a CCh-induced NALCN current: FIG. 6; for compound concentration which decreases half of a NALCN current (rank order): CCh-induced current; for activation of NALCN by CCh in the presence of the compound: compound present before CCh
T1 construct: expressed in transfected cells; host or cells: HEK293T
T1 sequence (Q6Q760 whole entry): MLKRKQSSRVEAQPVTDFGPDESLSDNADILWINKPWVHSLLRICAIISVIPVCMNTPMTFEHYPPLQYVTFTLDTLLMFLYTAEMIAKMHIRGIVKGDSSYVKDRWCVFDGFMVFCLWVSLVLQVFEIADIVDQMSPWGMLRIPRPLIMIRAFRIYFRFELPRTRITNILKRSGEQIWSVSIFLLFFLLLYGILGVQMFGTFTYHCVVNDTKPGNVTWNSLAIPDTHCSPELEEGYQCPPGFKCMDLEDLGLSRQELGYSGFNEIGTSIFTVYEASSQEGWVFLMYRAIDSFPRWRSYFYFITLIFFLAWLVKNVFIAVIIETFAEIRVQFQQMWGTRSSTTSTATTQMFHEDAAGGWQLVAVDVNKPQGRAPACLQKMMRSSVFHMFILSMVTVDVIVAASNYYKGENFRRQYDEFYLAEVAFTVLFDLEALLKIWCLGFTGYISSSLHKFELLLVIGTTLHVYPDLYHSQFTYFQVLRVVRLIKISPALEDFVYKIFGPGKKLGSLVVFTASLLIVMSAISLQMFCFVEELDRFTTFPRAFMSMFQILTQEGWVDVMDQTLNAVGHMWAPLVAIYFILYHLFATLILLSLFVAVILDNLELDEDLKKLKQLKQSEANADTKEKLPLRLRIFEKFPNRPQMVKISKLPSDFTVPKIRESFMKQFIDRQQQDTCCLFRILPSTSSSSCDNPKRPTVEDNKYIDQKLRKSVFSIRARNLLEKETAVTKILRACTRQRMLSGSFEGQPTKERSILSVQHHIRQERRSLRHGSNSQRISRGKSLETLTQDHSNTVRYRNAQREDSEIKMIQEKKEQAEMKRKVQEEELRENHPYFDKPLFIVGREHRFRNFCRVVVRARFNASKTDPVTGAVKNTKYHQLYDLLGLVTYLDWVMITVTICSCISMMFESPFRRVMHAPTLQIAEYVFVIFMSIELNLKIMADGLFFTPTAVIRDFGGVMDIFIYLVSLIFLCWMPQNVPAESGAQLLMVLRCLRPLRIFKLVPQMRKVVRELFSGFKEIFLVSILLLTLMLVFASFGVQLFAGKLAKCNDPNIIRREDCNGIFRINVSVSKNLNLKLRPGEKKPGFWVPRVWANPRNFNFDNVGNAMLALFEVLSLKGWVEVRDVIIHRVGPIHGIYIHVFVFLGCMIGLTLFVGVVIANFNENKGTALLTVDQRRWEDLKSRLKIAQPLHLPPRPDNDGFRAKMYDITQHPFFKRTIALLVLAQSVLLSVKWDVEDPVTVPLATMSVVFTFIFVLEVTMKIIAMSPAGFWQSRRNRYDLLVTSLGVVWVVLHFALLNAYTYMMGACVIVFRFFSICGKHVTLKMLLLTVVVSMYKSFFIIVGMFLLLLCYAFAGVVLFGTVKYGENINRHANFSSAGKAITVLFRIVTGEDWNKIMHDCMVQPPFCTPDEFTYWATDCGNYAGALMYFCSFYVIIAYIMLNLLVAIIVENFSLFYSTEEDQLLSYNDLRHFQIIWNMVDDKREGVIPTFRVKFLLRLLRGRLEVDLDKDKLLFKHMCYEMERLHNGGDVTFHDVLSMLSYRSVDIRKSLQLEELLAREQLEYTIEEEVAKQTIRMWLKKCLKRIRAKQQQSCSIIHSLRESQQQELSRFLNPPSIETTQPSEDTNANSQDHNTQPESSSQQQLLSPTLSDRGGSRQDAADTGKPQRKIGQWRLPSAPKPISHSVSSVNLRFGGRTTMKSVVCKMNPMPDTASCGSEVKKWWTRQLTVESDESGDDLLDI
Method: (§1) HEK293T cells were cultured in a DMEM ([…]) medium containing 10% FBS and 1% antibiotics using an incubator having a condition of 37° C. and 5% CO2. NALCN and TRPC cDNAs were respectively constructed using a vector that expresses GFP under an independent promoter. Lipofectamine 2000, which is used as a transfection reagent, was mixed with each plasmid and the cells were treated with the mixture. Then, after 48 hours, expression was identified. In order to identify whether normal transfection with each plasmid occurred, only the cells in which GFP was expressed were selected.
(§2) The HEK293T cells were transfected with combinations of M3R and NALCN, M3R and GFP, and M3R and TRPCs.
Among the transfected HEK293T cells acquired in Experimental Method 2, cells expressing GFP were selected, and a patch pipette formed of a thin glass tube was inserted into a membrane surface. After setting −80 mV as a holding potential, a current was measured. Under the holding potential, treatment with carbachol (CCh) which is an activator of M3R was performed to identify a current induced by NALCN. An extracellular solution was treated with 50 μM of L703606, and change of current caused by CCh was identified. In addition, based on voltage-independent characteristics of NALCN, currents obtained by varying the voltage from −80 mV to +10 mV were measured, and change of current caused by the treatment with L703606 was recorded. All data were presented as mean±standard deviation calculated after treatment with an inhibitor relative to a control (** P<0.01).
HEK293T cells are non-neuronal cells commonly used for transfection of genes. Based on the report that a NALCN channel is activated by M3R in pancreatic beta cells MIN6 and HEK293 cells, M3R and NALCN plasmids that had been cloned from rat brain were co-transfected into HEK293T cells to identify whether L703606 inhibits a NALCN current activated by M3R.

[2] = system: transient receptor potential canonical (TRPC) 3, 4, 5, 6, or 7 channel; experiment: Patch-clamp of HEK293T cells transfected with M3R and a TRPC channel, CCh-induced inward current; settings: holding potential −60 mV, second CCh stimulus, Na+ and K+ removed, cesium added
Method: as §1, §2
From the above, it was possible to identify NALCN inhibitory effects of the NBQN derivatives. Furthermore, in the present example, it was intended to identify whether the NBQN derivatives have specific and exclusive inhibitory activity against NALCN. […]

[3] = biological target: T2, NALCN (Mus musculus, UniProt Q8BXR5); experiment: Patch-clamp of isolated midbrain dopaminergic neurons (background and NT-induced currents, membrane voltage)
T2 construct: from tissue; host or cells: acutely isolated dopaminergic neurons of mouse substantia nigra pars compacta (TH-GFP mice)
Method: In order to obtain midbrain dopaminergic neurons from mice, substantia nigra pars compacta within mouse midbrain in which GFP was expressed due to tyrosine hydroxylase (TH) promoter was cut into sections. In order to isolate tissue, the sections were subjected to treatment with a highly-concentrated glucose solution at 36.5° C. which contains papain (4 U ml-1) for 20 minutes or longer. The enzymatically-treated sections of substantia nigra pars compacta were washed with a highly-concentrated glucose solution, and then slowly agitated using Pasteur pipettes with various size holes so that the respective dopaminergic neurons were isolated. All animal experiments were conducted under approval of the Institutional Animal Care and Use Committee (IACUC) of Sungkyunkwan University School of Medicine.
Among the dopaminergic neurons isolated in Experimental Method 1, dopaminergic neurons expressing GFP were selected, and a patch pipette formed of thin glass tube was inserted into a membrane surface. After setting −60 mV as a holding potential, a current was measured. A background current was identified under the holding voltage. After treatment with NT, a current was identified. Then, additionally, an extracellular solution was treated with 10 μM of L703606, and change of current was identified. In addition, the above procedure was repeated by replacing sodium ion with N-methyl-D-glucamine (NMDG). After treating the extracellular solution with 0.5 μM of tetrodotoxin (TTX) and 30 μM of ZD7288 which are a voltage-gated sodium channel inhibitor and an HCN channel inhibitor, respectively, a voltage was measured. Additionally, change of voltage at the time of treatment with 10 μM of L703606 was identified. All data were presented as mean±standard deviation calculated at the time of treatment with the inhibitors and replacement of sodium ion, relative to a control. (* P<0.05, ** P<0.01, *** P<0.001).
In addition, it was possible to identify that at the time of replacing sodium with NMDG, the background current was close to 0 pA, and an inward current was not induced by the treatment with NT. From this, it can be seen that the background current is generated by sodium ions.

[4] = holding potential −60 mV, 20 μM of PP1
[5] = holding potential −60 mV, 10 μM of L703606

COc1ccccc1CN[C@H]1CCCN[C@H]1c1ccccc1 [CP99994, (2S,3S)-N-[(2-methoxyphenyl)methyl]-2-phenylpiperidin-3-amine]
inhibitory effect on a CCh-induced NALCN current ([1]; M3R-NALCN HEK293T cells): insignificant inhibitory effect

COc1ccc(CCCOC(Cn2ccnc2)c2ccc(OC)cc2)cc1 (centres unmarked) [SKF96365]
CCh-induced inward current (TRPC current activated by M3R) [2]: not created at all

COc1ccccc1CNC1C2CCN(CC2)C1C(c1ccccc1)c1ccccc1 (centres unmarked) [CP96345, 2-(Diphenylmethyl)-N-(2-methoxybenzyl)quinuclidin-3-amine]
compound concentration which decreases half of a NALCN current (rank order) ([1]; M3R-NALCN HEK293T cells): next highest inhibitory effects
inhibitory effect on a CCh-induced NALCN current ([1]; M3R-NALCN HEK293T cells): inhibit a CCh-induced NALCN current in a similar fashion

Cc1ccc(-c2nn(C(C)(C)C)c3ncnc(N)c23)cc1 [PP1]
background current [3, 4]: little effect on the background current
inward current induced by NT stimulus [3, 4]: remarkably decreased
activation of NALCN by CCh in the presence of the compound ([1]; M3R-NALCN HEK293T cells): strong inward current induced by activation of NALCN
inhibition of the CCh-induced inward current ([1]; cells that co-express M3R-NALCN, treatment with PP1): did not greatly inhibit

COc1ccc(C(C)(C)C)cc1CN[C@H]1C2CCN(CC2)[C@H]1C(c1ccccc1)c1ccccc1 [Maropitant, (2S,3S)-2-(Diphenylmethyl)-N-[2-methoxy-5-(2-methyl-2-propanyl)benzyl]quinuclidin-3-amine]
compound concentration which decreases half of a NALCN current (rank order) ([1]; M3R-NALCN HEK293T cells): next highest inhibitory effects
inhibitory effect on a CCh-induced NALCN current ([1]; M3R-NALCN HEK293T cells): inhibit a CCh-induced NALCN current in a similar fashion

Ic1ccccc1CNC1C2CCN(CC2)C1C(c1ccccc1)c1ccccc1 (centres unmarked) [L703606, 2-(Diphenylmethyl)-N-(2-iodobenzyl)quinuclidin-3-amine]
spontaneous activity voltage ([3]; 10 μM of L703606): completely inhibited
background current [3, 5]: decreased
inward current induced by NT [3, 5]: not induced
membrane potential ([3]; spontaneous activity stopped by 0.5 μM TTX and 30 μM ZD7288, 10 μM of L703606): induced hyperpolarization of membrane potential
inhibition at 50 µM ([1]; HEK-293T, cells that co-express M3R-NALCN, holding potential −80 mV, 50 μM of L703606): ≥ 90%
CCh-induced inward current in the presence of PP1, after treatment with L703606 ([1]; M3R-NALCN HEK293T cells): returning to the background current again immediately
compound concentration which decreases half of a NALCN current (rank order) ([1]; M3R-NALCN HEK293T cells): highest inhibitory effect
inhibitory effect on a CCh-induced NALCN current ([1]; M3R-NALCN HEK293T cells): inhibit a CCh-induced NALCN current in a similar fashion
activation of NALCN by CCh in the presence of the compound ([1]; M3R-NALCN HEK293T cells): not possible to observe activation of NALCN
CCh-induced NALCN current where voltage is changed ([1]; voltage from −80 mV to +10 mV): decreased to a control level

From patent US11298344B2, “Composition for inhibiting sodium leak channel (NALCN), comprising n-benzhydryl quinuclidine derivatives” (Research & Business Foundation Sungkyunkwan University, priority 2018, dated 2022)
